Results from US8372823B2, “Tetracyclic inhibitors of fatty acid amide hydrolase” (The Scripps Research Institute, priority 2007, dated 2013).

Columns and labels:
Format in all cases: biochemical
[1] = target: T1, purified recombinant rat FAAH (Rattus norvegicus, UniProt P97612); experiment: FAAH enzyme assay, Ki (Dixon plot), rat FAAH; settings: purified recombinant rat FAAH expressed in E. coli; 14C-oleamide hydrolysis; pH 9.0; 20-23° C.
T1 construct: made in house; host or cells: E. coli
T1 sequence (P97612 1-579): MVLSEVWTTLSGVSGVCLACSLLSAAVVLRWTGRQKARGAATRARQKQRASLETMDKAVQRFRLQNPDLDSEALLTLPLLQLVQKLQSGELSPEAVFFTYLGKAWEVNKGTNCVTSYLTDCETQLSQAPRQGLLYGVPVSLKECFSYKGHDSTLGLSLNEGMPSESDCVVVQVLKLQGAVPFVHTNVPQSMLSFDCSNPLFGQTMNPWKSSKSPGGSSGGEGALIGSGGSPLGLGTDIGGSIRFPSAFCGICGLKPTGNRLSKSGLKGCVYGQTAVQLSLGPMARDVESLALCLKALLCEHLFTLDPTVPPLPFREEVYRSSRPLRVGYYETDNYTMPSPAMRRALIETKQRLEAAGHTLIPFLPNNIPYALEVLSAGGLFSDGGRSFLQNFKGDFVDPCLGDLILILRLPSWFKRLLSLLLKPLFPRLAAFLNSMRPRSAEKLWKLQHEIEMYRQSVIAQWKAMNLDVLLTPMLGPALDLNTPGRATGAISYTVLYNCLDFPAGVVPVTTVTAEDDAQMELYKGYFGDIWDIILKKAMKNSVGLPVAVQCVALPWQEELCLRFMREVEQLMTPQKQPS

[2] = target: T2, rat FAAH (Rattus norvegicus, UniProt P97612); experiment: FAAH inhibition IC50, rat; settings: inhibition at 3-5 test compound concentrations
T2 construct: made in house; host or cells: E. coli
T2 sequence (P97612 1-579): T1 sequence (P97612 1-579)
Procedure: (§1) Enzyme assays were performed at 20-23° C. with purified recombinant rat FAAH expressed in E. coli (Patricelli, M. P.; Lashuel, H. A.; et al. Biochemistry 1998, 37, 15177-15187) (unless indicated otherwise) or with solubilized COS-7 membrane extracts from cells transiently transfected with human FAAH cDNA (Giang, D. K.; Cravatt, B. F. Proc. Natl. Acad. Sci. U.S.A. 1997, 94, 2238-2242) (where specifically indicated) in a buffer of 125 mM Tris/1 mM EDTA/0.2% glycerol/0.02% Triton X-100/0.4 mM Hepes, pH 9.0 buffer (Patricelli, M. P.; Patterson, J. P.; et al. Bioorg. Med. Chem. Lett. 1998, 8, 613-618). […] NT=no data available.
(§2) IC50 values were determined from the inhibition observed at 3-5 different test compound concentrations (from three or more trials at each concentration) using the formula IC50=[I]/[K0/Ki)-1], where K0 is the control reaction rate without inhibitor and Ki is the rate with test compound at concentration [I] (Conde-Frieboes, K. et al. J. Am. Chem. Soc. 1996, 118, 5519-5525). NT=no data available.

[3] = target: T3, FAAH (Homo sapiens, UniProt O00519); experiment: FAAH inhibition IC50, human; parameters: expressed in transfected cells; host or cells: COS-7 (transient transfection), solubilized membrane extracts; settings: inhibition at 3-5 test compound concentrations
T3 sequence (O00519 1-579): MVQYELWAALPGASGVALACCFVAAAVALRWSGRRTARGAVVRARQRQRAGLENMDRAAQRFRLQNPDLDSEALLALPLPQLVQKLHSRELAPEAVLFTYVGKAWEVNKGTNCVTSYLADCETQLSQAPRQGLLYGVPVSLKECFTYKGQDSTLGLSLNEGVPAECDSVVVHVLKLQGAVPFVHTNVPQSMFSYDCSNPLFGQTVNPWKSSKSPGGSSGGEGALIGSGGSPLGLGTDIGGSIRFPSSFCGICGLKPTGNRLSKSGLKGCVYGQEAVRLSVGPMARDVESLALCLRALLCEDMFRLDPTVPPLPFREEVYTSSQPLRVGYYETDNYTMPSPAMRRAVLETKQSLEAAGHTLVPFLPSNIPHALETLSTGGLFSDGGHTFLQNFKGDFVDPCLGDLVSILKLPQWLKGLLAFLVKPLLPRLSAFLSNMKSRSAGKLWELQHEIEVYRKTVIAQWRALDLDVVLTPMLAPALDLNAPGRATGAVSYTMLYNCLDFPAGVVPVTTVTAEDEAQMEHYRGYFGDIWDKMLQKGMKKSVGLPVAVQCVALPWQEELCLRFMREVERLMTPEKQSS
Procedure: as §1, §2

| SMILES | Ki [1] [nM] | IC50 [2] [nM] | IC50 [3] [nM] |
| --- | --- | --- | --- |
| COC(=O)c1cccc(-c2cnc(C(=O)CCc3ccc(Oc4ccccc4)cc3)o2)n1 [Example 12, 6-{2-[3-(4-Phenoxy-phenyl)-propionyl]-oxazol-5-yl}-pyridine-2-carboxylic acid methyl ester] | 13 | 5 | 2 |
| COC(=O)c1ccc(-c2cnc(C(=O)CCc3ccc(Oc4ccccc4)cc3)o2)nc1 [Example 13, 6-{2-[3-(4-Phenoxy-phenyl)-propionyl]-oxazol-5-yl}-nicotinic acid methyl ester] | 54 | 6 | 3 |
| O=C(O)c1cccc(-c2cnc(C(=O)CCc3ccc(Oc4ccccc4)cc3)o2)n1 [Example 14, 6-{2-[3-(4-Phenoxy-phenyl)-propionyl]-oxazol-5-yl}-pyridine-2-carboxylic acid] | 65 | 1.5 | 2.7 |
| O=C(O)c1ccc(-c2cnc(C(=O)CCc3ccc(Oc4ccccc4)cc3)o2)nc1 [Example 15, 6-{2-[3-(4-Phenoxy-phenyl)-propionyl]-oxazol-5-yl}-nicotinic acid] | 33 | 0.2 | 0.3 |
| COC(=O)c1cccc(-c2cnc(C(=O)CCc3ccc(COc4ccccc4)cc3)o2)n1 [Example 16, 6-{2-[3-(4-Phenoxymethyl-phenyl)-propionyl]-oxazol-5-yl}-pyridine-2-carboxylic acid methyl ester] | 2 | 1 | 1.2 |
| COC(=O)c1ccc(-c2cnc(C(=O)CCc3ccc(COc4ccccc4)cc3)o2)nc1 [Example 17] | 3.5 | 2.5 | 0.8 |
| O=C(O)c1cccc(-c2cnc(C(=O)CCc3ccc(COc4ccccc4)cc3)o2)n1 [Example 18, 6-{2-[3-(4-Phenoxymethyl-phenyl)-propionyl]-oxazol-5-yl}-pyridine-2-carboxylic acid] | 6.1 | 0.5 | 1 |
| O=C(O)c1ccc(-c2cnc(C(=O)CCc3ccc(COc4ccccc4)cc3)o2)nc1 [Example 19, 6-{2-[3-(4-Phenoxymethyl-phenyl)-propionyl]-oxazol-5-yl}-nicotinic acid] | 4.6 | 2.5 | 0.8 |
| N#Cc1cccc(-c2cnc(C(=O)CCc3ccc(-c4ccccc4)cc3)o2)n1 [Example 20, 6-[2-(3-Biphenyl-4-yl-propionyl)-oxazol-5-yl]-pyridine-2-carbonitrile] | 3 | 2 | 11 |
| COC(=O)c1cccc(-c2cnc(C(=O)CCc3ccc(-c4ccc(CN5CCCCC5)cc4)cc3)o2)n1 [Example 34, 6-{2-[3-(4′-Piperidin-1-ylmethyl-biphenyl-4-yl)-propionyl]-oxazol-5-yl}-pyridine-2-carboxylic acid methyl ester] | 9 | – | – |
| COC(=O)c1cccc(-c2cnc(C(=O)CCc3ccc(-c4ccc(CN5CCSCC5)cc4)cc3)o2)n1 [Example 36, 6-{2-[3-(4′-Thiomorpholin-4-ylmethyl-biphenyl-4-yl)-propionyl]-oxazol-5-yl}-pyridine-2-carboxylic acid methyl ester] | 5 | – | – |
| COC(=O)c1cccc(-c2cnc(C(=O)CCc3ccc(-c4ccc(CN5CCCC5)cc4)cc3)o2)n1 [Example 37] | 18 | – | – |
| COC(=O)c1cccc(-c2cnc(C(=O)CCc3ccc(-c4ccc(CN(C)C)cc4)cc3)o2)n1 [Example 38] | 29 | – | – |
| COC(=O)c1cccc(-c2cnc(C(=O)CCc3ccc(-c4ccc(CN5CCN(C)CC5)cc4)cc3)o2)n1 [Example 39, 6-(2-{3-[4′-(4-Methyl-piperazin-1-ylmethyl)-biphenyl-4-yl]-propionyl}-oxazol-5-yl)-pyridine-2-carboxylic acid methyl ester] | 200 | – | – |
| O=C(O)c1cccc(-c2cnc(C(=O)CCc3ccc(-c4ccc(CN5CCCCC5)cc4)cc3)o2)n1 [Example 40, 6-{2-[3-(4′-Piperidin-1-ylmethyl-biphenyl-4-yl)-propionyl]-oxazol-5-yl}-pyridine-2-carboxylic acid] | 44 | – | – |
| O=C(O)c1cccc(-c2cnc(C(=O)CCc3ccc(-c4ccc(CN5CCSCC5)cc4)cc3)o2)n1 [Example 42, 6-{2-[3-(4′-Thiomorpholin-4-ylmethyl-biphenyl-4-yl)-propionyl]-oxazol-5-yl}-pyridine-2-carboxylic acid] | 28 | – | – |
| O=C(O)c1cccc(-c2cnc(C(=O)CCc3ccc(-c4ccc(CN5CCCC5)cc4)cc3)o2)n1 [Example 43, 6-{2-[3-(4′-Pyrrolidin-1-ylmethyl-biphenyl-4-yl)-propionyl]-oxazol-5-yl}-pyridine-2-carboxylic acid] | 127 | – | – |
| CN(C)Cc1ccc(-c2ccc(CCC(=O)c3ncc(-c4cccc(C(=O)O)n4)o3)cc2)cc1 [Example 44, 6-{2-[3-(4′-Dimethylaminomethyl-biphenyl-4-yl)-propionyl]-oxazol-5-yl}-pyridine-2-carboxylic acid] | 150 | – | – |
| CN1CCN(Cc2ccc(-c3ccc(CCC(=O)c4ncc(-c5cccc(C(=O)O)n5)o4)cc3)cc2)CC1 [Example 45, 6-(2-{3-[4′-(4-Methyl-piperazin-1-ylmethyl)-biphenyl-4-yl]-propionyl}-oxazol-5-yl)-pyridine-2-carboxylic acid] | 1230 | – | – |
| O=C(CCc1ccc(COc2ccccc2)cc1)c1ncc(-c2cccc(-c3nnn[nH]3)n2)o1 [Example 47, 3-(4-Phenoxymethyl-phenyl)-1-{5-[6-(1H-tetrazol-5-yl)-pyridin-2-yl]-oxazol-2-yl}-propan-1-one] | 21 | – | – |
| N#Cc1cccc(-c2cnc(C(=O)CCc3ccc(COc4ccccc4)cc3)o2)n1 [Example 48] | 3 | – | – |

Other lines, results leading:

| Ki [1] [nM] | IC50 [2] [nM] | IC50 [3] [nM] | SMILES |
| --- | --- | --- | --- |
| 5300 | – | – | O=C(COc1ccc(OCc2ccccc2)cc1)c1ncc(-c2ccccn2)o1 [Example 11b, 2-(4-(Benzyloxy)phenoxy)-1-(5-(pyridin-2-yl)oxazol-2-yl)ethanone] |
| 25 | – | – | O=C(CCc1cccc(OCc2ccccc2)c1)c1ncc(-c2ccccn2)o1 [Example 11c, 1-Oxo-1-[5-(2-pyridyl)oxazol-2-yl]-3-(3-(benzyloxy)phenyl)-propane] |
| 2100 | – | – | O=C(COc1cccc(OCc2ccccc2)c1)c1ncc(-c2ccccn2)o1 [Example 11d, 2-(3-(Benzyloxy)phenoxy)-1-(5-(pyridin-2-yl)oxazol-2-yl)ethanone] |
| 3.4 | – | – | O=C(CCc1ccc(Oc2ccccc2)cc1)c1ncc(-c2ccccn2)o1 [Example 11f, 1-Oxo-1-[5-(2-pyridyl)oxazol-2-yl]-3-(4-phenoxyphenyl)propane] |
| 2 | – | – | O=C(CCc1ccc(Nc2ccccc2)cc1)c1ncc(-c2ccccn2)o1 [Example 11g, 1-Oxo-1-[5-(2-pyridyl)oxazol-2-yl]-3-(4-(phenylamino)phenyl)-propane] |
| 3.2 | – | – | O=C(CCc1ccc(Cc2ccccc2)cc1)c1ncc(-c2ccccn2)o1 [Example 11h, 1-Oxo-1-[5-(2-pyridyl)oxazol-2-yl]-3-(4-benzylphenyl)propane] |
| 2.2 | – | – | O=C(CCc1ccc(Sc2ccccc2)cc1)c1ncc(-c2ccccn2)o1 [Example 11i, 1-Oxo-1-[5-(2-pyridyl)oxazol-2-yl]-3-(4-(phenylthio)phenyl)propane] |
